This passage reports TGI results from PubChem BioAssay (NCI).

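Exposure lasted 48 hours, with cells grown in 96-well plates and compounds tested at five concentrations. TGI denotes the concentration required for complete inhibition of growth.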 Where a SMILES comes first, the peptide text is derived from it. [ ]: non-standard residue; d: D form. The star is where a group is joined. Bn2Val = CC(C)[C@@H](C(=O)*)N(Cc1ccccc1)Cc1ccccc1; NHPiperonyl = c1cc2c(cc1CN*)OCO2; NMeV = CN[C@H](C(=O)O)C(C)C; dNMeA = CN[C@H](C)C(=O)O

Experiment in all cases: growth of human tumour cells (NCI), 48 h
Test [1] has as its system TK-10 renal.
In test [2] the test system is SW-620 colon.
Test [3] concerns NCI-H522 lung.
In test [4] the test system is HL-60(TB) leukemia.
For test [5], the system named is UACC-257 melanoma.
Test [6] relates to KM12 colon.
For test [7], the system named is K-562 leukemia.
The test system of test [8] is SK-OV-3 ovarian.
The subject of test [9] is NCI-H460 lung.
Test [10] concerns HOP-92 NSCLC.
For test [11], the system named is CAKI-1 renal.
The test system of test [12] is HCT-116 colon.
Test [13] has as its system 786-0 renal.
The subject of test [14] is OVCAR-5 ovarian.
In test [15] the test system is LOX IMVI melanoma.
Test [16] has as its system RXF 393 renal.
Test [17] deals with NCI/ADR-RES ovarian.
In test [18] the test system is PC-3 prostate.
The subject of test [19] is OVCAR-4 ovarian.

With `COc1ccc2c(c1)CC[C@@H]1C2CC[C@]2(C)C(=N\O)/C(=N/O)CC12` (stereo partly specified), the TGI in test [1] turned out to be 41.2 µM; in test [2], 40.2 µM; in test [3], 11.5 µM; in test [4], 35.7 µM; in test [5], 32.9 µM; in test [6] it was 42.7 µM. Besides, the TGI in test [7] was 36 µM; in test [8], 32.6 µM; in test [9], 12.5 µM; in test [10] it was 30.6 µM; in test [11] it was 24.1 µM; in test [12], 29.5 µM. The TGI in test [13] was found to be 31.8 µM; in test [14] it was 25.8 µM; in test [15], 6.11 µM.

For the compound `O=S(Nc1ccccc1)c1ccccc1Oc1ccccc1` (stereo unspecified), the TGI in test [16], in [1], in test [2], in test [3], in test [17] and in test [4] was more than 100 µM each time. Also, the TGI in test [5], in [6], in test [7], in [9], in test [11] and in test [18] was more than 100 µM each time. Further, the TGI in test [12], in test [13], in test [14] and in test [15] was more than 100 µM each time.

With `ClCCN(CC#CCCCC#CCN(CCCl)CCCl)CCCl`, the TGI in test [16] was 33.5 µM; in test [1] it was 41 µM; in test [2] it was 23.3 µM; in [3], 21.7 µM; in test [17], 58.1 µM; in [4] it was 7.18 µM. For the same compound, the TGI in test [5] turned out to be 29.2 µM; in test [6], 44.4 µM; in test [7], 37.7 µM; in test [8], 27.8 µM; in test [9], 16.3 µM; in test [10] it was 43.1 µM. Moreover, the TGI was determined as 32.7 µM in test [11]; 25.3 µM in test [12]; 61.2 µM in test [19]; 20.7 µM in test [13]; 26 µM in test [14]; 20.9 µM in test [15].

In the case of `[N-]=[N+]=CC(=O)OC1CCc2ccccc21` (stereo unspecified), the TGI in test [16], in [1], in [2], in test [3], in [4] and in test [5] was more than 100 µM throughout. The TGI in test [7] is more than 100 µM; in test [8], more than 100 µM; in test [9], more than 100 µM; in test [10] it was more than 100 µM; in test [11], 52.5 µM; in test [18] it was more than 100 µM. In addition, the TGI in test [12], in test [19], in test [13], in test [14] and in test [15] was more than 100 µM in each case.

Regarding `O=C1c2ccccc2-c2nc(-c3cccs3)cc3c2c1nc1ccccc13`, the TGI in test [1] is more than 100 µM; in test [2], 31 µM; in [3], 83.5 µM; in test [17], more than 100 µM; in test [4] it was 26.5 µM; in [5] it was 37.3 µM. Also, the TGI in [6], in test [7], in test [8], in test [9], in test [10] and in test [11] was more than 100 µM in each case. Moreover, the TGI in test [18] is more than 100 µM; in [12] it was 42.2 µM; in test [19], more than 100 µM; in test [13], more than 100 µM; in [14], more than 100 µM; in test [15], 35.9 µM.

In the case of `CC(C)[C@H](NC(=O)[C@H](C(C)C)N(Cc1ccccc1)Cc1ccccc1)C(=O)N(C)[C@H](C(=O)N1CCC[C@H]1C(=O)N(C)[C@H](C)C(=O)NCc1ccc2c(c1)OCO2)C(C)C` (Bn2Val-V[NMeV]P[dNMeA]-NHPiperonyl), the TGI in test [1] is more than 100 µM; in [2], more than 100 µM; in [3], more than 100 µM; in [17] it was more than 100 µM; in test [4], 2.8 µM; in [5], more than 100 µM. The TGI in test [6] is more than 100 µM; in test [7], 54 µM; in test [8], more than 100 µM; in test [9] it was more than 100 µM; in test [11], more than 100 µM; in test [18], 89.9 µM. The TGI in test [12] is 23.2 µM; in test [19], more than 100 µM; in [13] it was more than 83.2 µM; in test [14], 23.9 µM; in test [15], more than 100 µM.

Regarding `CCOc1ccccc1NC(=O)CSc1nnc(Cc2ccccc2)o1`, the TGI is 55.3 µM in [16]; more than 100 µM in [1]; 37.2 µM in test [2]; 40.7 µM in test [3]; more than 100 µM in test [4]; 98.6 µM in test [5]. In addition, the TGI in test [6] is more than 100 µM; in test [7], more than 100 µM; in test [8], more than 100 µM; in [9], 44.8 µM; in [11], 37.6 µM; in test [12], 84.5 µM. Besides, the TGI in test [19] is 63.5 µM; in [13], 44.8 µM; in [14], more than 100 µM; in test [15], 40 µM.

As for `NC(CCCNc1ccc(O)cc1)C(=O)O` (stereo unspecified), the TGI in [16] is 63.6 µM; in [1] it was 97.7 µM; in test [2] it was 42.7 µM; in test [3], more than 100 µM; in test [4] it was 58.3 µM; in test [5] it was more than 70.5 µM. Moreover, the TGI is more than 100 µM in test [6]; more than 72.1 µM in test [7]; more than 100 µM in test [8]; more than 100 µM in [9]; 63.3 µM in [10]; more than 100 µM in test [11]. Further, the TGI in test [12] was 32.1 µM; in test [19] it was 31.7 µM; in test [13] it was 31.5 µM; in test [14], more than 100 µM; in test [15], 33.3 µM.

Take `c1ccc(C2(c3ccccc3)S/C(=C3/SC(c4ccccc4)(c4ccccc4)c4ccccc43)c3ccccc32)cc1`: the TGI in [16], in [1], in [2], in test [3], in test [17] and in [4] was more than 100 µM in each case. Moreover, the TGI in test [5], in [6], in test [7], in [8], in test [9] and in test [10] was more than 100 µM throughout. Besides, the TGI in test [11], in test [18], in [12], in [19], in test [13] and in test [14] was more than 100 µM throughout. Besides, the TGI in [15] is more than 100 µM.

For `COC(=O)C12OCC34C(CC5C(C)C6=CC(=O)OC6=CC5(C)C3C(O)C1O)OC(=O)C(OC(C)=O)C24` (stereo unspecified), the TGI in [16] worked out at 29 µM; in test [1], 31.4 µM; in [2], 26.2 µM; in test [3] it was 24.6 µM; in [4], 33.3 µM; in test [5] it was 30 µM. Moreover, the TGI came to 32.6 µM in test [6]; 54.3 µM in [7]; 79.4 µM in test [8]; 51.8 µM in test [9]; 35.2 µM in test [10]; 25.2 µM in test [11]. For the same compound, the TGI in test [12] stood at 37.2 µM; in test [19], 41.2 µM; in test [13] it was 29.1 µM; in test [14], 44.2 µM; in test [15], 37 µM.

`COc1c(N2CCCCC2)c2c(=O)c3ccccc3oc2c2cc(C)oc12`: the TGI is 70 µM in test [16]; more than 100 µM in test [1]; more than 100 µM in test [2]; more than 100 µM in test [17]; 58 µM in test [4]; more than 100 µM in [5]. The TGI was 62.4 µM in test [6]; more than 100 µM in test [7]; more than 100 µM in [8]; more than 100 µM in test [9]; 55.6 µM in test [10]; 37.3 µM in test [11]. Further, the TGI in test [18] is 51.5 µM; in [12], 22.6 µM; in test [19], more than 100 µM; in test [13], more than 100 µM; in [14], more than 100 µM; in test [15], 86.5 µM.

Take `CC(/C=C/c1ccccc1)=N\N=C(C)\C=C\c1ccccc1`: the TGI in [1], in test [2], in test [3], in test [4], in test [5] and in test [6] was more than 100 µM in each case. The TGI in [7], in [8], in test [9], in test [12], in test [19] and in [13] was more than 100 µM each time. In addition, the TGI in test [14] and in [15] was more than 100 µM throughout.

With `S=C(Nc1ccc(Cl)cc1)c1ccc(CN2CCCCC2)s1`, the TGI in [2] is more than 100 µM; in test [3], 75 µM; in test [17], more than 100 µM; in [4], 6.97 µM; in [5] it was more than 100 µM; in test [6] it was 56.8 µM. Moreover, the TGI in test [7] is 13.9 µM; in [9], 21.9 µM; in [11] it was 52.1 µM; in [18], 73.4 µM; in [12], 25.5 µM; in [19], 80.7 µM. Moreover, the TGI in [13] is more than 100 µM; in [14], 32.1 µM; in test [15], 6.14 µM.

In the case of `Clc1ccc(/C=c2\nc(-c3ccccc3)n3c2nc2ccccc23)cc1`, the TGI in test [16], in test [1], in test [2], in [17], in [4] and in test [5] was more than 100 µM throughout. In addition, the TGI in [6], in test [7], in test [8], in test [9], in test [10] and in test [11] was more than 100 µM throughout. Also, the TGI in test [18] is 87.8 µM; in test [12], more than 100 µM; in test [19], more than 100 µM; in [13], more than 100 µM; in test [14], more than 100 µM; in test [15], more than 100 µM.

Consider `CC1(C)CC(=O)c2c([nH]c(=S)c(C#N)c2-c2ccc(Br)cc2)C1`, for which the TGI in test [16], in [1], in test [2], in [3], in [17] and in [4] was more than 100 µM throughout. Besides, the TGI in test [5] is more than 100 µM; in test [7] it was more than 100 µM; in [8], more than 100 µM; in [9] it was more than 100 µM; in [10] it was 52.5 µM; in test [11], more than 100 µM. The TGI in test [18], in [12], in test [19], in [13], in [14] and in [15] was more than 100 µM each time.

`O=C(c1ccc(-c2ccccc2)cc1)N(Cc1cccnc1)C(=S)N(Cc1cccnc1)C(=O)c1ccc(-c2ccccc2)cc1`: the TGI in test [1], in [2], in test [3], in [17], in test [4] and in [5] was more than 100 µM each time. For the same compound, the TGI in test [6], in [7], in [8], in [9], in [10] and in test [11] was more than 100 µM throughout. The TGI in test [18], in test [12], in test [19], in test [13], in test [14] and in test [15] was more than 100 µM in each case.
